# Measured values as given in patent US7354938B2, “Pyrazole compounds and uses related thereto” (Amgen Inc., priority 2004, dated 2008).
# Target: T1, human HSD1 (recombinant HSD1) (Homo sapiens, UniProt P28845)
# T1 construct: made in house
# Assay: In vitro HSD1 activity inhibitory action (SPA, conversion of cortisone to cortisol)
# Format: biochemical
# Conditions: recombinant human HSD1 expressed in baculo-virus system, 16 nM 3H cortisone, 500 μM NADPH, room temperature, 90 min
# Method: In Vitro HSD1 (Hydroxysteroid Dehydrogenase 1) Activity Inhibitory Action
# The HSD1 inhibitory activity was examined by quantitative determination by an SPA (scintillation proximity assay) system of the suppressive action on the conversion from cortisone to cortisol using human HSD1 (hereinafter recombinant HSD1) expressed using a baculo-virus system as an enzyme source. For the reaction, a reagent was added to a 96 well plate (96 well Opti-plates™-96 (Packard)) to the following final concentration and a volume of 100 μl was reacted at room temperature for 90 min. The reaction solution used was 0.1 μg/mL recombinant HSD1,500 μM NADPH, 16 nM ^3H cortisone (Amersham Biosciences, 1.78 Tbq/mol) dissolved in 0.1% BSA (Sigma)-containing PBS and the test drug was 2 μl of a compound solution (dissolved in DMSO). After 90 min, the reaction was stopped by adding PBS (40 μl, containing 0.1% BSA (Sigma)) containing 0.08 μg of anti-cortisol mouse monoclonal antibody (East Coast Biologics), 365 μg SPA PVT mouse antibody-binding beads (Amersham Biosciences) and 175 μM carbenoxolone (Sigma) to the reaction solution. After the completion of the reaction, the plate was incubated overnight at room temperature and the radioactivity was measured by Topcount (Packard). For control, the value (0% inhibition) of the well containing 2 μl of DMSO instead of the test drug was used, and for positive control, the value (100% inhibition) of the well containing carbenoxolone instead of the test drug at the final concentration of 50 μM was used. The inhibition (%) of the test drug was calculated by ((value of control−value of test drug)/(value of control−value of positive control))×100 (%). The IC50 value was analyzed using a computer-based curve fitting soft.
# T1 sequence (P28845 whole entry): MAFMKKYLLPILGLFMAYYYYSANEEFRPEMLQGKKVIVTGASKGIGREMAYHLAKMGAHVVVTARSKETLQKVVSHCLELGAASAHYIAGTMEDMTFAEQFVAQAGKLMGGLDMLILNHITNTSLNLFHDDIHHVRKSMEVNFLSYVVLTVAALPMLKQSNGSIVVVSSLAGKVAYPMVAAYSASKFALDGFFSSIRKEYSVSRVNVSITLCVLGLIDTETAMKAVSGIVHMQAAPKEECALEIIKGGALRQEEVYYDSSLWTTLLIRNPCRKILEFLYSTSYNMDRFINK
row,SMILES,IC50
1,"Cc1c(-c2ccc(Cl)cc2Cl)n[nH]c1C1(c2ccccc2)CC1 [Ex. 1-1, 3-(2,4-dichlorophenyl)-4-methyl-5-((1-phenylcyclopropane)-1-yl)-pyrazole]",< 10 nM
2,Clc1ccc(-c2cc(CCc3ccccc3Cl)n[nH]2)c(Cl)c1 [Ex. 1-2],10 to 1000 nM
3,Cc1c(CCc2ccccc2Cl)n[nH]c1-c1ccc(Cl)cc1Cl [Ex. 1-3],< 10 nM
4,CCOC(=O)c1c(-c2ccc(Cl)cc2Cl)n[nH]c1C1(c2ccccc2)CC1 [Ex. 1-4],10 to 1000 nM
5,Clc1ccc(-c2cc(C3(c4ccccc4)CC3)[nH]n2)c(Cl)c1 [Ex. 1-5],10 to 1000 nM
6,OCc1c(-c2ccc(Cl)cc2Cl)n[nH]c1Cc1ccc(F)cc1 [Ex. 1-8],10 to 1000 nM
7,Cc1c(-c2ccc(Cl)cc2Cl)n[nH]c1Cc1ccc(F)cc1 [Ex. 1-9],10 to 1000 nM
8,Cc1c(C2CCN(c3c(Cl)cncc3Cl)CC2)n[nH]c1C1(c2ccccc2)CC1 [Ex. 1-10],10 to 1000 nM
9,Cc1c(C2CCN(c3ncccc3Cl)CC2)n[nH]c1C1(c2ccccc2)CC1 [Ex. 1-11],< 10 nM

# The remaining lines, values ahead:
row,IC50,SMILES
1,< 10 nM,CC(C)c1c(-c2ccccc2)n[nH]c1C1(c2ccc(F)cc2)CC1 [Ex. 1-12]
2,< 10 nM,Cc1c(-c2ccccc2)n[nH]c1C1(c2ccc(F)cc2)CC1 [Ex. 1-13]
3,10 to 1000 nM,Cc1c(-c2ccc(N3CCOC3=O)cc2Cl)n[nH]c1C1(c2ccccc2)CC1 [Ex. 1-14]
4,< 10 nM,Cc1c(-c2ccccn2)n[nH]c1C1(c2ccc(F)cc2)CC1 [Ex. 1-15]
5,< 10 nM,Cc1c(C2(c3ccc(F)cc3)CC2)n[nH]c1C1(c2ccc(F)cc2)CC1 [Ex. 1-16]
